The target of this assay is T1, cloned human dopamine D3 receptors (Homo sapiens, UniProt P35462).
T1 construct: expressed in transfected cells; membrane homogenate
The experiment in a line: [N-Methyl-3H]Spiroperidol binding to cloned human dopamine D3 receptors. The essentials:
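Radioligand displacement with [N-methyl-3H]spiroperidol was run on membranes from a high-expressing CHO clone carrying human D3. Membranes were prepared in 10% DMSO and stored at −80° C.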

Read-outs that look alike come from different tables or passages of the source.

T1 sequence (P35462 whole entry): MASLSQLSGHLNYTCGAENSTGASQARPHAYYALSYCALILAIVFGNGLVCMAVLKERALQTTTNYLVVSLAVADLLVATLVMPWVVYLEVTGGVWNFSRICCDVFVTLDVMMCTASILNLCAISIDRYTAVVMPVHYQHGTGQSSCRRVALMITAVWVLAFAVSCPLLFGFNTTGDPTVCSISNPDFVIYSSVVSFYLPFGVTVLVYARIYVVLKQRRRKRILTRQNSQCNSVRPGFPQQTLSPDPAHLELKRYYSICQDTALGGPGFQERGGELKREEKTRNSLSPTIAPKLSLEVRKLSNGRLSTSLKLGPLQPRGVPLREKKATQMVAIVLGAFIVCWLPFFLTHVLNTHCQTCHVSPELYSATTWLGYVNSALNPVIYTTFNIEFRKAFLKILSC

Consider `Cc1cccc(CN2CCC(NC(=O)[C@@H]3C[C@H]3CN3CCC(c4noc5ccsc45)CC3)CC2)c1` [compound 832788], for which, for the setting “read-out: D3 Ki”, the Ki was found to be 1.84 nM. Take `COc1c(F)ccc2c(C3CCN(CCC4(C(=O)N[C@H]5CC[C@H](O)CC5)CC4)CC3)noc12` [compound 833476]: the Ki (read-out: D3 Ki) stood at 131 nM. With `CN(CCc1c[nH]c2ccccc12)C(=O)[C@@H]1C[C@H]1CN1CCC(c2noc3ccsc23)CC1` [compound 831278], the Ki (read-out: D3 Ki) is 18.1 nM. Still for that read-out and setting: next, `O=C([C@@H]1C[C@H]1CN1CCN(c2csc3cc(C(F)(F)F)ccc23)CC1)N1CCC(Cn2ccnc2)CC1` [compound 831958]: 13 nM; `O=C([C@H](O)CCN1CCC(c2noc3ccsc23)CC1)N1CCCCC1` [compound 830558]: 34.2 nM; `C[C@H]1CC[C@H](NC(=O)[C@@H]2C[C@H]2CN2CCC(c3nsc4cc(Br)ccc34)CC2)CC1` [compound 833703]: 1.92 nM. On the same count and under the same terms, then `COc1ccc2c(c1)c(N1CCN(C[C@@H]3C[C@H]3C(=O)NCCCc3ccccc3)CC1)nn2-c1ccc(C(F)(F)F)cc1` [compound 831314], with 133 nM; and `Cc1ccc2c(c1)c(C1CCN(C[C@@H]3C[C@H]3C(=O)NC3C4CCC3CN(C)C4)CC1)nn2C` (some centres unmarked) [A002328940], with 26.8 nM; and `O=C(NC1CCN(Cc2ncc[nH]2)CC1)C1CC1CN1CCC(c2noc3ccsc23)CC1` (racemic) [compound 832392], with 2.29 nM.

In the case of `Cn1nc(C2CCN(C[C@@H]3C[C@H]3C(=O)N3CCC[C@@H](Cn4ccnc4)C3)CC2)c2cccc(C(F)(F)F)c21` [A002439260], the Ki (read-out: D3 Ki) is 0.303 nM. Take `O=C(NC1CCN(Cc2ccc(Cl)cc2)CC1)[C@@H]1C[C@H]1CN1CCN(c2csc3cc(C(F)(F)F)ccc23)CC1` [compound 832737]: under “read-out: D3 Ki”, the Ki was determined as 5.42 nM. The same measure, in the same setting: next, `O=C(NCCCn1ccnc1)[C@@H]1C[C@H]1CN1CCN(c2nn(-c3ccc(C(F)(F)F)cc3)c3ccsc23)CC1` [compound 832634]: 7.63 nM; `Cn1nc(C2CCN(C[C@@H]3C[C@H]3C(=O)N[C@H]3CC[C@H](O)CC3)CC2)c2cccc(C(F)(F)F)c21` [compound 833080]: 22.9 nM. Still for that read-out and setting: then `O=C([C@@H]1C[C@H]1CN1CCC(c2noc3ccsc23)CC1)N1CCN(Cc2ccc(Cl)cc2)CC1` [compound 833128], with 26.7 nM. Still for that read-out and setting: next, `O=C(NCCc1ccc(Cl)cc1)C1CC1CN1CCC(c2noc3ccsc23)CC1` (racemic) [compound 831800]: 5 nM. `Cc1nc(Cl)c(Cl)n1CCCNC(=O)[C@@H]1C[C@H]1CN1CCN(c2csc3cc(C(F)(F)F)ccc23)CC1` [compound 832512]: for the setting “read-out: D3 Ki”, the Ki turned out to be 15.7 nM. The same measure, in the same setting: next, `COc1c(F)ccc2c(C3CCN(C[C@@H]4C[C@H]4C(=O)NCCCc4ccccc4)CC3)noc12` [compound 831310]: 103 nM; `O=C(NCCCc1ccn(S(=O)(=O)c2ccccc2)c1)C1CC1CN1CCC(c2noc3ccsc23)CC1` (racemic) [compound 832185]: 7.87 nM. On the same count and under the same terms, next, `CN(C)Cc1ccc(CSCCNC(=O)C2CC2CN2CCC(c3noc4ccsc34)CC2)o1` (racemic) [compound 831740]: 2.96 nM; `O=C(NC1CCN(Cc2ccc(Cl)c(Cl)c2)CC1)[C@@H]1C[C@H]1CN1CCC(c2cc3ccccc3s2)CC1` [compound 832716]: 7.54 nM; `O=C(NCCN1CCNC1=O)[C@@H]1C[C@H]1CN1CCN(c2csc3cc(C(F)(F)F)ccc23)CC1` [compound 832498]: 70.3 nM. Consider `O=C(NC1CCN(C(=O)Nc2ccc(F)cc2)CC1)C1CC1CN1CCC(c2noc3ccsc23)CC1` (racemic) [832576ES], for which the Ki (read-out: D3 Ki) turned out to be 17.5 nM.

As to `O=C(C1CC1CN1CCC(c2noc3ccsc23)CC1)N1CCN(Cc2ccc3c(c2)OCO3)CC1` (racemic) [compound 832165], the Ki (read-out: D3 Ki) was found to be 30.1 nM. Turning to `CN(C(=O)CCCCN1CCN(c2csc3cc(F)ccc23)CC1)c1ccc(C(C)(C)C)cc1` [compound 822140], the Ki (read-out: d3Ki) amounted to 113 nM.

As for `O=C(NCCN1CCNC1=O)[C@@H]1C[C@H]1CN1CCC(c2noc3ccsc23)CC1` [compound 832529], where the note is “read-out: D3 Ki”, the Ki amounted to 146 nM. Still for that read-out and setting: then `Cn1nc(C2CCN(C[C@@H]3C[C@H]3C(=O)NCCCn3ccnc3)CC2)c2sccc21` [A002436291, 2R-[4-(1-Methyl-1H-thieno[3,2-c]pyrazol-3-yl)-piperidin-1-ylmethyl]-1R-cycloproanecarboxylic acid (3-imidazol-1-yl-propyl)-amide], with 0.629 nM. On the same count and under the same terms, next, `C[C@H]1CC[C@H](NC(=O)[C@@H]2C[C@H]2CN2CCN(c3nc4cccc5c4n3CCC5)CC2)CC1` [compound 833699, 2R-[4-(5,6-Dihydro-4H-imidazo[4,5,1-ij]quinolin-2-yl)-piperazin-1-ylmethyl]-1R-cyclopranecarboxylic acid (trans-4-methyl-cyclohexyl)-amide]: 7.2 nM. For the molecule `CC(C)(C)C(=O)O[C@H]1CC[C@H](NC(=O)[C@@H]2C[C@H]2CN2CCC(c3csc4c(C(F)(F)F)cccc34)CC2)CC1` [compound 833151], where the note is “read-out: D3 Ki”, the Ki is 11.2 nM.

Turning to `COc1cccc2c(C3CCN(C[C@@H]4C[C@H]4C(=O)N4CCCC(Cn5ccnc5)C4)CC3)noc12` (mixture of isomers) [compound 833910], under “read-out: D3 Ki”, the Ki came to 1.09 nM. Still for that read-out and setting: then `O=C(NC1CCN(Cc2ccc(Cl)cc2)CC1)C1CC1CN1CCC(c2noc3ccsc23)CC1` (racemic) [compound 831997], with 3.55 nM. The same measure, in the same setting: next, `O=C(N[C@H]1CC[C@H](O)CC1)C1(CCN2CCC(c3noc4ccsc34)CC2)CC1` [compound 832317]: 943 nM; `O=C(CCCN1CCN(c2noc3ccsc23)CC1)N1CCC(n2ccnc2)CC1` [compound 832212]: 302 nM. Still for that read-out and setting: next, `O=C(NCC1CCNCC1)[C@@H]1C[C@H]1CN1CCC(c2nn(-c3ccccc3)c3ccsc23)CC1` [A002440436A]: 11.4 nM. As for `O=C(NCCS(=O)(=O)c1cccc2c(Cl)cccc12)[C@@H]1C[C@H]1CN1CCC(c2noc3ccsc23)CC1` [compound 832528], where the note is “read-out: D3 Ki”, the Ki came to 48.5 nM. Still for that read-out and setting: then `NS(=O)(=O)c1ccc(CCNC(=O)C2CC2CN2CCC(c3noc4ccsc34)CC2)cc1` (racemic) [compound 831701], with 55.7 nM; and `CC(C)(C)OC(=O)N1CCC(CNC(=O)[C@@H]2C[C@H]2CN2CCC(c3noc4ccsc34)CC2)CC1` [compound 833375], with 24.2 nM.

For `O=C(NCCCN1CCCCC1)[C@@H]1C[C@H]1CN1CCC(c2csc3c(C(F)(F)F)cccc23)CC1` [compound 833686], the Ki (read-out: D3 Ki) is 7.22 nM. As to `O=C(C1CC1CN1CCC(c2noc3ccsc23)CC1)N1CCN(Cc2ccccc2)CC1` (racemic) [compound 832153], the Ki (read-out: D3 Ki) was 30.7 nM.

As to `Cn1nc(N2CCN(C[C@@H]3C[C@H]3C(=O)NC3CCN(CC4CCCCC4)CC3)CC2)c2sccc21` [A002287757], the Ki (read-out: D3 Ki) was 2.41 nM. Same read-out and setting: next, `COc1ccc2c(c1)c(N1CCN(C[C@@H]3C[C@H]3C(=O)NC3CCN(Cc4ccc(F)cc4)CC3)CC1)nn2C` [compound 833835]: 0.499 nM. Still for that read-out and setting: then `COc1c(F)ccc2c(C3CCN(C[C@@H]4C[C@H]4C(=O)NCCCn4ccnc4)CC3)noc12` [compound 831309], with 40.6 nM. As to `CC1CCC(NC(=O)C2CC2CN2CCN(c3n[nH]c4cc(Cl)ccc34)CC2)CC1` (racemic) [compound 830124], under “read-out: D3 Ki”, the Ki was found to be 1.84 nM. The same measure, in the same setting: next, `O=C(NCCCn1ccnc1)[C@@H]1C[C@H]1CN1CCN(c2csc3cc(C(F)(F)F)ccc23)CC1` [compound 831269]: 4.08 nM; `COc1cccc2c(C3CCN(C[C@@H]4C[C@H]4C(=O)NC4CC5CC(C4C)C5(C)C)CC3)nn(C)c12` (some centres unmarked) [compound 834171]: 65.2 nM.

`O=C(NCCCN1CCOCC1)[C@@H]1C[C@H]1CN1CCN(c2csc3cc(C(F)(F)F)ccc23)CC1` [compound 831492]: the Ki (read-out: D3 Ki) is 0.432 nM. As to `Cc1ccc(S(=O)(=O)n2nc(N3CCN(C[C@@H]4C[C@H]4C(=O)NCCCn4ccnc4)CC3)c3sccc32)cc1` [compound 831267], where the note is “read-out: D3 Ki”, the Ki stood at 28.3 nM.

For `O=C(C1CC1CN1CCC(c2noc3ccsc23)CC1)N1CCN(S(=O)(=O)C=Cc2ccccc2)CC1` (racemic) [compound 831838], the Ki (read-out: D3 Ki) was determined as 141 nM.

As for `CC1CCC(NC(=O)C2CCC2CN2CCC(c3noc4ccsc34)CC2)CC1` (racemic) [compound 829830], for the setting “read-out: D3 Ki”, the Ki was 65.3 nM. Same read-out and setting: then `COc1cccc2c(C3CCN(C[C@@H]4C[C@H]4C(=O)NCCCn4ccnc4)CC3)nn(C)c12` [compound 834058], with 91.4 nM; and `O=C(C1CC1CN1CCC(c2noc3ccsc23)CC1)N1CCC(CCN2CCCC2)CC1` (racemic) [compound 832198], with 5.81 nM; and `COc1c(F)ccc2c(C3CCN(CCC4(C(=O)NCCCN5CCCCC5)CC4)CC3)noc12` [compound 833365], with 166 nM. On the same count and under the same terms, next, `Cc1ccc2[nH]cc(CCNC(=O)[C@@H]3C[C@H]3CN3CCC(c4noc5ccsc45)CC3)c2c1` [compound 831277]: 5.38 nM; `O=C(C1COc2ccccc2O1)N1CCN(C(=O)C2CC2CN2CCC(c3noc4ccsc34)CC2)CC1` (racemic) [compound 832055]: 112 nM. Same read-out and setting: then `O=C(NCCC(c1ccccc1)c1ccccc1)C1CC1CN1CCC(c2noc3ccsc23)CC1` (racemic) [compound 832191], with 8.06 nM; and `O=C(Cc1ccccc1)NNC(=O)C1CC1CN1CCC(c2noc3ccsc23)CC1` (racemic) [compound 831452], with 115 nM; and `CC(C)(C)OC(=O)N1CCC(CNC(=O)[C@@H]2C[C@H]2CN2CCC(c3nn(CC(F)(F)F)c4ccsc34)CC2)CC1` [A002439266], with 66 nM. As to `Cn1nc(C2CCN(C[C@@H]3C[C@H]3C(=O)NCCCc3cccnc3)CC2)c2cccc(C(F)(F)F)c21` [compound 833092], the Ki (read-out: D3 Ki) is 33.5 nM. Consider `O=C(C1CC1CN1CCC(c2noc3ccsc23)CC1)N1CCC(n2c(=O)[nH]c3ccccc32)CC1` (racemic) [compound 831737], for which the Ki (read-out: D3 Ki) amounted to 1.25 nM. As for `O=C(NC1CCN(Cc2ccc(F)cc2F)CC1)[C@@H]1C[C@H]1CN1CCN(c2csc3cc(C(F)(F)F)ccc23)CC1` [compound 833516], under “read-out: D3 Ki”, the Ki was 21.7 nM.

The values are drawn from patent US7772252B2, “Heterocyclic substituted carbonyl derivatives and their use as dopamine D3 receptor ligands” (Aventis Pharmaceuticals Inc., priority 2001, dated 2010).
